Patent US9815851B2, “Pyrrolo carboxamides as modulators of orphan nuclear receptor RAR-related orphan receptor-gamma (RORγ, NR1F3) activity and for the treatment of chronic inflammatory and autoimmune diseases” (PHENEX PHARMACEUTICALS AG, priority 2011, dated 2017)
Where two headings read alike, the source gives them in different places.

Legend:
[1] = target: T1, RORγ ligand binding domain (LBD) (Homo sapiens, UniProt P51449); assay: TR-FRET Activity Assay (ligand sensing, RORγ-LBD / coactivator peptide interaction, LANCE); type: biochemical
T1 construct: made in house; host or cells: E. coli BL-21 (BL3), vector pDEST15
T1 sequence (P51449 269-508 limits assumed): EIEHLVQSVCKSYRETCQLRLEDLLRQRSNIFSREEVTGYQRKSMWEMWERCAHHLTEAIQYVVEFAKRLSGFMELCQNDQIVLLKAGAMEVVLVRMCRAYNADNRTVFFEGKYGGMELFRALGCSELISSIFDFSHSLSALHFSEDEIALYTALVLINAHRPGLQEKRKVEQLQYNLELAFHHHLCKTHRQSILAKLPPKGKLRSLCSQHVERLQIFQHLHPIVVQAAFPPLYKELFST

RORγ = target: T2, RORγ (UniProt P51449); assay: RORγ Gal4 Reporter Gene Assay in 293T cells (firefly and renilla luciferase); type: cell-based, human
T2 sequence (P51449 1-518): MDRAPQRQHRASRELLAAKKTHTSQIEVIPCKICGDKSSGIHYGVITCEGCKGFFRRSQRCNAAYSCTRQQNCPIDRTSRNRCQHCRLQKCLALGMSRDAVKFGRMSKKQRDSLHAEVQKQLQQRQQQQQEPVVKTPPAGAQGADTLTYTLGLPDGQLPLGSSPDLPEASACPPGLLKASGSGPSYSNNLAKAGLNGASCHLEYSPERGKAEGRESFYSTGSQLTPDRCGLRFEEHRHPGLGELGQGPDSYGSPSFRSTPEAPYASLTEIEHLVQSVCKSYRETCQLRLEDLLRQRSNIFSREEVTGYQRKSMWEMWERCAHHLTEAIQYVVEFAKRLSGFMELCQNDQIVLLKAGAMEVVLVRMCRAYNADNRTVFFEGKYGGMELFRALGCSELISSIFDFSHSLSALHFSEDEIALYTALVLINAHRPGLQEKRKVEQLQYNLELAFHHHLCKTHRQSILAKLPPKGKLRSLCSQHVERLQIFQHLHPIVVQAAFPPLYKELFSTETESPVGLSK

[2] = first value of the cell FRET/FF/REN, TR-FRET activity assay, read-out: pIC50 (FRET) (converted)
[3] = second value of the cell, Gal4 reporter gene assay in 293T cells, firefly luciferase
[4] = third value of the cell, Gal4 reporter gene assay in 293T cells, renilla normalised luciferase

Row | SMILES | IC50 [1, 2] [nM] | pIC50 (FF) (RORγ; [3]) | pIC50 (REN) (RORγ; [4]) | IC50 [1] [nM] | pIC50 (FF) (RORγ) | pIC50 (REN) (RORγ)
1 | Cc1c(C(=O)N[C@H]2C[C@H](C(=O)O)C2)cc(-c2cc(C(C)(C)C)cc(C3(O)CC3)c2)n1CC1CCCCC1 [17/155] | 631 | 7.0 | 7.0 | – | – | –
2 | CCC(C)(C)NS(=O)(=O)c1ccc(-c2cc(C(=O)NC3COC3)c(C)n2CC2CCCCC2)cc1C(C)(C)C [9/7] | 501 | 7.5 | 7.5 | – | – | –
3 | Cc1c(S(=O)(=O)NC(C)(C)C)ccc(-c2cc(C(=O)NC3CCOCC3)c(C)n2CC2CCCCC2)c1OC(F)F [17/285] | 631 | 7.3 | 7.4 | – | – | –
4 | Cc1c(C(=O)N[C@H]2C[C@H](C(=O)O)C2)cc(-c2cc(C(C)(C)C)cc(C(=O)NC(C)(C)C)c2Cl)n1CC1CCCCC1 [17/368] | 7940 | 6.4 | 6.2 | – | – | –
5 | Cc1n[nH]cc1-c1ccc(-c2cc(C(=O)NC3CCOCC3)c(C)n2CC2CCCCC2)cc1C(C)(C)C [26/1] | – | – | – | 251 | 6.6/7.4/7.5 | 6.6/7.4/7.5
6 | Cc1c(C(=O)NC2COC2)cc(-c2cc(C(=O)NC(C)C)cc(C(F)(F)F)c2)n1CC1CCCCC1 [15/2] | 1000 | 6.3 | 6.3 | – | – | –
7 | Cc1c(C(=O)NC2CCOCC2)cc(-c2ccc(CC(=O)NC(C)(C)C)c(C(F)(F)F)c2)n1CC1CCCCC1 [17/131] | 501 | 6.8 | 6.9 | – | – | –
8 | Cc1c(C(=O)N[C@H]2C[C@H](C(=O)O)C2)cc(-c2ccc(S(=O)(=O)NC3(C#N)CC3)c(C(F)(F)F)c2)n1CC1CCCCC1 [17/362] | 1260 | 5.9 | 5.8 | – | – | –
9 | Cc1c(C(=O)NCCC(C)(C)C(N)=O)cc(-c2ccc(S(=O)(=O)NC(C)(C)C)c(C(F)(F)F)c2)n1CC1CCCCC1 [17/135] | 631 | 6.7 | 6.7 | – | – | –
10 | Cc1c(C(=O)NC2CCNC(=O)C2)cc(-c2ccc(S(=O)(=O)NC(C)(C)C)c(C(C)(C)C)c2)n1CC1CCCCC1 (stereo not drawn) [17/89] | 1580 | 6.9 | 6.9 | – | – | –
11 | COC(=O)[C@H]1C[C@H](NC(=O)c2cc(-c3cc(C(C)(C)C)cc(C4(C)CC4)c3)n(CC3CCCCC3)c2F)C1 [20/2] | 316 | 7.0 | 7.2 | – | – | –
12 | Cc1c(C(=O)NC2COC2)cc(-c2cc(OCC(C)(C)C)nc(C(C)(C)C)c2)n1CC1CCCCC1 [1/120] | – | – | – | 126 | 6.9/7.1/7.3 | 6.9/7.1/7.3
13 | Cc1c(C(=O)NCC2(C(N)=O)CCOCC2)cc(-c2cc(C(C)(C)C)cc(C3(C)CC3)c2)n1CC1CCCCC1 [17/62] | 316 | 8.3 | 8.3 | – | – | –
14 | Cc1c(C(=O)NC2C[S+]([O-])C2)cc(-c2ccc(S(=O)(=O)NC(C)(C)C)c(C(C)(C)C)c2)n1CC1CCCCC1 (stereo not drawn) [2/1] | – | – | – | 794 | 6.1/6.5/6.5 | 6.1/6.5/6.5
15 | Cc1c(C(=O)NCC2CCOCC2)cc(-c2cc(C(C)(C)C)cc(C3(C)CC3)c2)n1CC1CCCCC1 [17/63] | – | – | – | 200 | 6.7/7.7/7.6 | 6.7/7.7/7.6
16 | Cc1c(C(=O)NCC2CCS(=O)(=O)CC2)cc(-c2ccc(S(=O)(=O)NC(C)(C)C)c3ccccc23)n1CC1CCCCC1 [17/265] | 316 | 7.9 | 8.0 | – | – | –
17 | Cc1c(C(=O)NCC(C)(C)C(=O)NCCO)cc(-c2cc(C(C)(C)C)c3c(c2)C2(CCO3)CC2)n1CC1CCCCC1 [11/5] | – | – | – | 316 | 6.5/7.3/7.4 | 6.5/7.3/7.4
18 | Cc1c(C(=O)NC2CCOCC2)cc(-c2ccc(S(=O)(=O)NC(C)(C)C)c(C(F)(F)F)c2Cl)n1CC1CCCCC1 [17/288] | 398 | 7.3 | 7.3 | – | – | –
19 | Cc1c(C(N)=O)cc(-c2ccc(C(O)(C(F)(F)F)C(F)(F)F)cc2)n1CC1CCCCC1 [1/45] | 1000 | 5.6 | 5.8 | – | – | –
20 | Cc1c(C(=O)NCCCCCO)cc(-c2cc(C(C)(C)C)cc(C3(C)CC3)c2)n1CC1CCCCC1 [1/82] | – | – | – | 158 | 6.8/7.4/7.4 | 6.8/7.4/7.4
21 | Cc1c(S(=O)(=O)NC(C)(C)C)ccc(-c2cc(C(=O)NCC3(O)CCS(=O)(=O)CC3)c(C)n2CC2CCCCC2)c1Cl [17/290] | 631 | 7.6 | 7.6 | – | – | –
22 | Cc1c(C(=O)N2CC3(CCS(=O)(=O)CC3)C2)cc(-c2ccc(S(=O)(=O)NC(C)(C)C)c3ccccc23)n1CC1CCCCC1 [17/270] | 631 | 7.8 | 8.0 | – | – | –
23 | Cc1c(C(=O)NCC2(C(N)=O)CCOCC2)cc(-c2ccc(S(=O)(=O)NC(C)(C)C)c3ccccc23)n1CC1CCCCC1 [17/267] | 794 | 7.9 | 8.0 | – | – | –
24 | Cc1c(C(=O)NC2CCOCC2)cc(-c2ccc(S(=O)(=O)NC(C)(C)C)c(C(F)(F)F)c2)n1C1CC12CCCC2 (stereo not drawn) [17/175] | 794 | 6.6 | 6.7 | – | – | –
25 | Cc1c(C(=O)NC2CCOCC2)cc(-c2cc(Cl)cc(C3(C)CC3)c2)n1CC1CCCCC1 [17/296] | 251 | 7.0 | 7.1 | – | – | –
26 | Cc1cc(-c2cc(C(=O)NC3CCOCC3)c(C)n2CC2CCCCC2)cc(C(F)(F)F)c1S(=O)(=O)NC(C)(C)C [17/232] | – | – | – | 794 | 6.1/6.8/7.0 | 6.1/6.8/7.0
27 | Cc1c(C(N)=O)cc(-c2cccc(C(O)(C(F)(F)F)C(F)(F)F)c2)n1CC1CCCCC1 [1/47] | 3980 | < 4.7 | < 4.7 | – | – | –
28 | Cc1c(C(=O)NC2CCOCC2)cc(-c2ccc(C(=O)N(C)C)c(C(C)(C)C)c2)n1CC1CCCCC1 [6/5] | 2510 | 6.5 | 6.4 | – | – | –
29 | Cc1c(C(=O)NC2C[S+]([O-])C2)cc(-c2cc(C(C)(C)C)c3c(c2)C2(CCO3)CC2)n1CC1CCCCC1 (stereo not drawn) [17/25] | – | – | – | 316 | 6.5/6.9/7.0 | 6.5/6.9/7.0
